Assay type in all cases: cell-based
Assay [1] deals with HepG2 (hepatocellular carcinoma). As to the kind of experiment: in vitro cytotoxicity assay (Cell-Titer-Glo), HepG2. Conditions: Homo sapiens, HepG2, 96 h, 4 days. On the procedure:
(§1) To evaluate cell killing of cancer cell lines, an in vitro cytotoxicity assay was performed. The tumor cell lines used were purchased from the American Type Culture Collection, and are identified as follows: Panc-1 (pancreas), MiaPaCa-2 (pancreas), MCF-7 (breast), HT-29 (colon), U2-OS (osteosarcoma), OVCAR-3 (ovary), HepG2 (hepatocellular carcinoma) and TT (medullary thyroid). The assay utilized the Cell-Titer-Glo Non-Radioactive Cell Proliferation Assay (Promega Corp., Madison, Wis.). First the cells were cultured in RPMI 1640 medium (Cat# 21870-076, Invitrogen Corporation) supplemented with 300 mg/L L-glutamine, 100 units/ml penicillin, 100 μg/ml streptomycin and 10% fetal bovine serum. All the cell lines were incubated in a humidified incubator at 37° C. with 5% CO2 atmosphere.
(§2) Cells were plated at a density of 2000 to 10000 cells per well, depending on their growth rate, in 0.09 mL medium on day 0 in 96-well Microlite TCT microtiter plates (7418, Thermo Labsystems, Franklin, Mass.). On day 1, 10 μL of serial dilutions of the individual compounds were added to the plates in replicates of 3. After incubation for 4 days at 37° C. in a humidified incubator, the cells were lysed in the Cell-Titer-Glo reagent, which also contains luciferase enzyme. The luciferase reaction utilizes ATP released from lysed cells to produce light, the intensity of which is linearly related to the amount of ATP. Thus, the amount of light produced is a reflection of the number of cells remaining in the well after drug treatment. This luminescence was measured using a Luminoskan luminometer (Thermo Electron Corp., Vantaa, Finland) Data were expressed as the percentage of survival of control cells calculated from the luminescence corrected for background. The surviving percent of cells was determined by dividing the mean luminescence values of the treated wells by the mean luminescence values of the control and multiplying by 100.
as §1, with “Briefly,” for “To evaluate cell killing of cancer cell lines, an in vitro cytotoxicity assay was performed. The”, “thyroid), PC-3 (prostate) and A549 (lung).” for “thyroid).”
as §1, with “carcinoma), PC-3 (prostate),” for “carcinoma)”, “A549 (lung).” for “TT (medullary thyroid).”
(§3) Cells were plated at a density of 2000 to 10000 cells per well, depending on their growth rate, in 0.09 mL medium on day 0 in 96-well Microlite TCT microtiter plates (#7418, Thermo Labsystems, Franklin, Mass.). On day 1, 10 μL of serial dilutions of the individual compounds were added to the plates in replicates of 3. After incubation for 4 days at 37° C. in a humidified incubator, the cells were lysed in the Cell-Titer-Glo reagent, which also contains luciferase enzyme. […]

Assay [2] relates to OVCAR-3 (ovary). As to the kind of experiment: in vitro cytotoxicity assay (Cell-Titer-Glo), OVCAR-3. The note with it: Homo sapiens. As to the method: as §1, §2
as §1, with “Briefly,” for “To evaluate cell killing of cancer cell lines, an in vitro cytotoxicity assay was performed. The”, “thyroid), PC-3 (prostate) and A549 (lung).” for “thyroid).”
as §1, with “carcinoma), PC-3 (prostate),” for “carcinoma)”, “A549 (lung).” for “TT (medullary thyroid).”
as §3

Assay [3] has as its system A549 (lung). As to the kind of experiment: in vitro cytotoxicity assay (Cell-Titer-Glo), A549. The note with it: Homo sapiens. As to the method:
as §1, with “Briefly,” for “To evaluate cell killing of cancer cell lines, an in vitro cytotoxicity assay was performed. The”, “thyroid), PC-3 (prostate) and A549 (lung).” for “thyroid).”
as §2
as §1, with “carcinoma), PC-3 (prostate),” for “carcinoma)”, “A549 (lung).” for “TT (medullary thyroid).”
as §2, with “(#7418,” for “(7418,”, “100. […]” for “100.”

Assay [4] concerns MiaPaCa-2 (pancreas). As to the kind of experiment: in vitro cytotoxicity assay (Cell-Titer-Glo), MiaPaCa-2. Conditions: Homo sapiens, MIA PaCa-2, 96 h, 4 days. On the procedure:
as §1, §2
as §1, with “Briefly,” for “To evaluate cell killing of cancer cell lines, an in vitro cytotoxicity assay was performed. The”, “thyroid), PC-3 (prostate) and A549 (lung).” for “thyroid).”
as §1, with “carcinoma), PC-3 (prostate),” for “carcinoma)”, “A549 (lung).” for “TT (medullary thyroid).”
as §3

The test system of assay [5] is U2-OS (osteosarcoma). As to the kind of experiment: in vitro cytotoxicity assay (Cell-Titer-Glo), U2-OS. Conditions: Homo sapiens, U2OS. On the procedure: as §1, §2
as §1, with “Briefly,” for “To evaluate cell killing of cancer cell lines, an in vitro cytotoxicity assay was performed. The”, “thyroid), PC-3 (prostate) and A549 (lung).” for “thyroid).”
as §1, with “carcinoma), PC-3 (prostate),” for “carcinoma)”, “A549 (lung).” for “TT (medullary thyroid).”
as §3

Setting [6] is: Example 20, read-out: Cell-based IC50 values HepG2.
The mark [7] stands for this setting: OVCAR-3, 96 h, Example 20, 4 days, read-out: Cell-based IC50 values OVCAR-3.
Where [8] appears, read: A549, 96 h, Example 20, 4 days, read-out: Cell-based IC50 values A549.
Where [9] appears, read: Example 20, read-out: Cell-based IC50 values MiaPaCa-2.
[10] abbreviates: 96 h, Example 20, 4 days, read-out: Cell-based IC50 values U2-Os.
Where [11] appears, read: OVCAR-3, 96 h, Table 9, 4 days, read-out: IC50 OVCAR-3.
The mark [12] stands for this setting: A549, 96 h, Table 9, 4 days, read-out: IC50 A549.
The mark [13] stands for this setting: Table 9, read-out: IC50 MiaPaCa-2.
Setting [14] is: 96 h, Table 9, 4 days, read-out: IC50 U2-OS.

As a reminder, the IC50 is the concentration that gives 50% inhibition.

Like-named read-outs stand apart in the source and are kept apart here.

Consider `CC(=O)NS(=O)(=O)c1ccc(NC(=S)N2CCN(c3ncnc4[nH]c5cc(C(F)(F)F)c(Cl)cc5c34)CC2)cc1` [Compound 1-1, 4-(6-Chloro-7-trifluoromethyl-9H-pyrimido[4,5-b]indol-4-yl)-piperazine-1-carbothioic acid (4-acetylsulfamoyl-phenyl)-amide], for which the IC50 in assay [1] (Example 18, read-out: calculated IC50 HepG2) was 7.83 µM; in assay [1] (setting [6]), 26 µM; in assay [2] (OVCAR-3, 96 h, Example 18, 4 days, read-out: calculated IC50 OVCAR-3) it was 25 µM; in assay [2] (setting [7]) it was 13.1 µM; in assay [2] (OVCAR-3, Table 10, 96 hours, read-out: IC50 OVCAR-3 (inhibit cell growth to 50% of untreated)) it was 25 µM; in assay [3] (setting [8]), 53.8 µM. The IC50 in assay [3] (A549, Table 10, 96 hours, read-out: IC50 A549 (inhibit cell growth to 50% of untreated)) is 19 µM; in assay [4] (Example 18, read-out: calculated IC50 MiaPaCa-2) it was 66.6 µM; in assay [4] (setting [9]), 18.6 µM; in assay [5] (96 h, Example 18, 4 days, read-out: calculated IC50 U2-OS), 25.9 µM; in assay [5] (setting [10]), 13.2 µM; in assay [5] (Table 10, 96 hours, read-out: IC50 U2-Os (inhibit cell growth to 50% of untreated)), 25.9 µM.
As for `COc1cc2[nH]c3ncnc(N4CCN(C(=S)Nc5ccc(S(=O)(=O)NC(C)=O)cc5)CC4)c3c2cc1OC` [Compound 1-2, 4-(6,7-Dimethoxy-9H-pyrimido[4,5-b]indol-4-yl)-piperazine-1-carbothioic acid (4-acetylsulfamoyl-phenyl)-amide], the concentration for half-maximal inhibition (IC50) is 295 µM in assay [1] (setting [6]); 29.4 µM in assay [2] (setting [7]); 194 µM in assay [3] (setting [8]); 173 µM in assay [4] (setting [9]); 71.7 µM in assay [5] (setting [10]).
The corresponding values for `CC(=O)NS(=O)(=O)c1ccc(NC(=S)N2CCN(c3ncnc4[nH]c5ccc(Cl)cc5c34)CC2)cc1` [Compound 1-3, 4-(6-chloro-9H-pyrimido[4,5-b]indol-4-yl)-piperazine-1-carbothioic acid (4-acetylsulfamoyl-phenyl)-amide] are 49.6 µM, 48 µM, 37 µM, 22.1 µM and 20.8 µM.
`CC(=O)NS(=O)(=O)c1ccc(NC(=S)N2CCN(c3ncnc4[nH]c5cc(F)ccc5c34)CC2)cc1` [Compound 1-4]: the IC50 in assay [1] (setting [6]) amounted to 88 µM; in assay [2] (setting [7]), 79 µM; in assay [3] (setting [8]), 72.7 µM; in assay [4] (setting [9]) it was 85.2 µM; in assay [5] (setting [10]) it was 36.3 µM.
In the case of `COc1cc2c(cc1O)[nH]c1ncnc(N3CCN(C(=S)Nc4ccc(S(=O)(=O)NC(C)=O)cc4)CC3)c12` [Compound 1-8], the 50% inhibitory concentration (IC50) in assay [1] (setting [6]) was 81.8 µM; in assay [2] (setting [7]) it was 82.4 µM.
As for `COc1cc2[nH]c3ncnc(N4CCN(C(=S)Nc5ccc(S(=O)(=O)N6CCOCC6)cc5)CC4)c3c2cc1OC` [Compound 1-26], the concentration for half-maximal inhibition (IC50) in assay [1] (setting [6]) is 4.38 µM; in assay [2] (setting [7]) it was 156 µM; in assay [3] (setting [8]), 130 µM; in assay [4] (setting [9]), 8.92 µM; in assay [5] (setting [10]) it was 6.95 µM.
Take `COc1cc2[nH]c3ncnc(N4CCN(C(=S)Nc5ccc(NC(=O)C6CC6)cc5)CC4)c3c2cc1OC` [Compound 1-34]: the IC50 in assay [1] (setting [6]) worked out at 81.9 µM; in assay [2] (setting [7]) it was 111 µM; in assay [3] (setting [8]), 186 µM; in assay [4] (setting [9]) it was 9.82 µM; in assay [5] (setting [10]), 27 µM.
The corresponding values for `COc1cc2[nH]c3ncnc(N4CCN(C(=S)Nc5ccc(NC(C)=O)cc5)CC4)c3c2cc1OC` [Compound 1-42] are 98.5 µM, 85.1 µM, 160 µM, 182 µM and 41.3 µM.
For `COc1cc2[nH]c3ncnc(N4CCN(C(=S)Nc5ccc(S(N)(=O)=O)cc5)CC4)c3c2cc1OC` [Compound 1-107], the IC50 in assay [1] (setting [6]) was found to be 173 µM; in assay [2] (setting [7]), 176 µM; in assay [3] (setting [8]), 51.5 µM; in assay [4] (setting [9]), 107 µM; in assay [5] (setting [10]) it was 8.7 µM.
On the same counts, the results for `COc1cc2[nH]c3ncnc(N4CCN(C(=S)Nc5ccc(S(C)(=O)=O)cc5)CC4)c3c2cc1OC` [Compound 1-115] are 57.9 µM, 175 µM, 149 µM, 55.4 µM and 50.4 µM.
As for `COc1cc2[nH]c3ncnc(N4CCN(C(=S)Nc5ccc(S(=O)(=O)Nc6ccc(F)cc6)cc5)CC4)c3c2cc1OC` [Compound 2-3, 4-(6,7-dimethoxy-9H-pyrimido[4,5-b]indol-4-yl)-N-(4-(N-(4-fluorophenyl)sulfamoyl)phenyl)piperazine-1-carbothioamide], the 50% inhibitory concentration (IC50) in assay [1] (Table 9, read-out: IC50 HepG2) worked out at 9.02 µM; in assay [2] (setting [11]), 9.14 µM; in assay [3] (setting [12]), 23 µM; in assay [4] (setting [13]), 7.19 µM; in assay [5] (setting [14]) it was 8.18 µM.
On the same counts, the results for `COc1ccc2c(c1)[nH]c1ncnc(N3CCN(C(=S)Nc4ccc(S(=O)(=O)Nc5ccc(F)cc5)cc4)CC3)c12` [Compound 2-5, 4-(7-methoxy-9H-pyrimido[4,5-b]indol-4-yl)-N-(4-(N-(4-fluorophenyl)sulfamoyl)phenyl)piperazine-1-carbothioamide] are 8 µM, 6.79 µM, 6.73 µM, 6.89 µM and 8.49 µM.

These data come from US20080207632A1, “PROTEIN KINASE INHIBITORS” (SUPERGEN, INC., priority 2006, published 2008).
